Measured values reported in PubChem BioAssay (NCI).
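Five compound concentrations were applied to cells in 96-well plates for 48 hours; endpoints were derived by simple linear interpolation of the resulting dose-response curve. TGI denotes the concentration required for complete inhibition of growth.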

Columns and labels:
Experiment in all cases: NCI-60 cell line screen, 48 h
HOP-62 NSCLC = system: HOP-62 NSCLC
COLO 205 colon = system: COLO 205 colon
MCF7 breast = system: MCF7 breast
SW-620 colon = system: SW-620 colon
SF-295 CNS = system: SF-295 CNS
UO-31 renal = system: UO-31 renal
HT29 colon = system: HT29 colon
786-0 renal = system: 786-0 renal
U251 CNS = system: U251 CNS
SK-MEL-5 melanoma = system: SK-MEL-5 melanoma
SK-OV-3 ovarian = system: SK-OV-3 ovarian
OVCAR-3 ovarian = system: OVCAR-3 ovarian

Row | Compound | TGI (HOP-62 NSCLC) [µM] | TGI (COLO 205 colon) [µM] | TGI (MCF7 breast) [µM] | TGI (SW-620 colon) [µM] | TGI (SF-295 CNS) [µM] | TGI (UO-31 renal) [µM] | TGI (HT29 colon) [µM] | TGI (786-0 renal) [µM] | TGI (U251 CNS) [µM] | TGI (SK-MEL-5 melanoma) [µM] | TGI (SK-OV-3 ovarian) [µM] | TGI (OVCAR-3 ovarian) [µM]
1 | Cc1ccccc1Nc1nc2ccccc2nc1NS(=O)(=O)c1ccccc1 | > 100 | > 100 | > 100 | > 100 | > 100 | > 100 | > 100 | > 100 | > 100 | > 100 | > 100 | > 100
2 | Cc1nc(-n2nc(-c3ccccc3)cc2-c2ccccc2)sc1C(=O)/C=C/c1ccccc1 | > 100 | > 100 |  | > 100 | > 100 | > 100 | > 100 | > 100 | > 100 | > 100 | > 100 | > 100
3 | CCOC(=O)C1C(c2ccc(OC)cc2)c2c([nH]n(-c3ccccc3)c2=O)CC1(C)O (stereo not drawn) | > 100 | 50.4 | > 100 | > 100 | > 100 | > 100 | > 100 | > 100 | > 100 | > 100 |  | > 100
4 | CN(/N=C\c1ccc2ccccc2c1)C1=NCCCN1 | 27.4 | 25.3 | 26.4 | 27.2 | 26.8 | 25.2 | 31.1 | 29.1 | 96.6 | 24.6 | 98.3 | 54.1
5 | COc1ccc(/C=N/NC(=S)Nc2cc(C)ccc2OC)cc1 | > 100 | 32.7 | > 100 | > 100 | > 100 | > 100 | 79.4 | 70.9 |  | 30 | > 100 | > 100
6 | c1cc2c(cc1[C@@H]1OC[C@@H]3[C@H]1CO[C@H]3c1ccc3c(c1)OCO3)OCO2 | > 100 | > 100 | > 100 | > 100 | > 100 | > 100 | > 100 | > 100 | > 100 | 33.6 | > 100 | > 100
7 | CC(CC=O)Nc1nn2c(=O)c3ccccc3nc2s1 (stereo not drawn) | > 100 | > 100 | > 100 | > 100 | > 100 | 48.1 | > 100 | > 100 | > 100 | > 100 | > 100 | > 100
8 | CC(=O)C(C(C)=O)[C@H]1OC(C)(C)O[C@H]1[C@H]1COC(C)(C)O1 | > 100 | 32.5 | > 100 | > 100 | > 100 | > 100 | > 100 | > 100 | 79.9 | > 100 | > 100 | > 100
9 | COc1cccc(N=NN2CCCC2)c1 | > 100 | > 100 | > 100 | > 100 | > 100 | > 100 |  | > 100 | > 100 | > 100 | > 100 | > 100
10 | CCOC(=O)c1c(-c2ccccc2)c(C)cn1C |  |  |  |  | > 10 | > 10 | > 10 | > 10 | > 10 |  | > 10 | > 10
11 | COC(=O)CC1CC2(C(=O)OC)c3[nH]c4ccccc4c3CCN2C1=O (stereo not drawn) | > 100 | > 100 |  | > 100 | > 100 | > 100 | > 100 | > 100 | > 100 | > 100 | > 100 | > 100
12 | COC(=O)C(=O)C(C(=O)C(=O)Nc1ccc(C)c(C)c1)c1nc2ccc([N+](=O)[O-])cc2[nH]c1=O (stereo not drawn) | > 100 |  | > 100 | > 100 | > 100 | > 100 | > 100 | > 100 | > 100 | > 100 | > 100 | > 100
13 | CC(=O)O[C@H]1C(=O)[C@@]2(C)[C@H]([C@H](OC(=O)c3ccco3)[C@]3(O)C[C@H](OC(=O)[C@H](O)[C@@H](NC(=O)c4ccccc4)c4ccccc4)C(C)=C1C3(C)C)[C@]1(OC(C)=O)CO[C@@H]1C[C@@H]2O | > 25 | > 5.82 | > 25 | > 25 | > 19.7 | > 25 | > 25 | > 25 | > 25 |  | 10 | 0.225
14 | COc1ccc2c(c1)CC[C@@H]1C2CC[C@]2(C)C(=C=CP(=O)(O)O)CCC12 (stereo partly drawn) | > 100 | > 100 | > 100 | > 100 | > 100 |  | > 100 | > 100 | > 100 | > 100 | > 100 | > 100
15 | O=c1[nH]c2ccc([N+](=O)[O-])cc2nc1/C(=N/Nc1ccccc1)C(O)c1ccco1 (stereo not drawn) | > 100 | > 100 |  | > 100 | > 100 | > 100 | > 100 | > 100 | > 100 | 90.6 | > 100 | > 100
16 | O=C(NCc1ccccc1Cl)c1c(O)c2ccccc2[nH]c1=O | 41 | > 100 | > 100 | 64.3 | > 100 | 33.4 | > 100 | 36.5 | 40.7 | > 100 |  | > 100
17 | O=C(O)C1(C(O)c2ccccc2)SCCCS1 (stereo not drawn) | > 10 |  | > 10 | > 10 | > 10 | > 10 | > 10 | > 10 | > 10 | > 10 | > 10 | > 10
18 | O=CC1=CCC2c3[nH]c4ccccc4c3CCN2C1 (stereo not drawn) | > 39.6 | > 396 |  | > 396 | 326 |  | 273 | > 396 | 195 | > 396 | > 396 | 314
